Test system: Pythium aphanidermatum
Test: In-vivo validation under greenhouse conditions in cucumber seedlings infected with Pythium aphanidermatum
Conditions: preventative treatment 24 h before inoculation; 2 types of formulations; 100 to 400 ppm; evaluated 7 days after inoculation
Excerpt: FIGS. 1-8 show the effect of Licochalcone C (LIC) on cucumber seedlings survival in 8 independent experiments determined as percentage of disease severity 7 days following inoculation with Pythium aphanidermatum. FIGS. 9-11 show effect of Licochalcone C (LIC) on cucumber seedlings survival in 3 independent experiments determined as of disease severity 7 days following inoculation with Rhizoctonia solani. * means that p-value <0.05, ** means that p-value is <0.01, # means that p-value <0.1, n.s. means non-significant difference vs. non-treated plants. For formulation description used for Licochalcone C see Example 7.
To evaluate the effect of a Licochalcone C in infected plants compared to control plants (infected but not treated) the data was analysed by Student's t-test and the p-value is calculated. The minimum number of repeats in each experiment was 3. Results were considered significant if p<0.05. The data presented as mean with standard error mean from biological replicates. * means that p-value <0.05, ** means that p-value is <0.01, # means that p-value <0.1. […]
General description: Pythium aphanidermatum disease severity development was evaluated following preventative treatment by Licochalcone C (LIC) […]

`COc1c(/C=C/C(=O)c2ccc(O)cc2)ccc(O)c1CC=C(C)C` [Licochalcone C, (E)-3-[4-hydroxy-2-methoxy-3-(3-methylbut-2-enyl)phenyl]-1-(4-hydroxyphenyl)prop-2-en-1-one] was tested, and the “efficacy in preventing Pythium disease in cucumber seedling” value was “up to 100%”.

Source: patent publication US20240049707A1, “PESTICIDE COMPOSITIONS OF LICOCHALCONE C” (METABOLIC INSIGHTS LTD., priority 2020, published 2024)
